Here are results for six compounds from patent publication US7851000B2, “Taste potentiator compositions and edible confectionery and chewing gum products containing same” (Cadbury Adams USA LLC, priority 2005, dated 2010).

The subject of test [1] is expert panel members. Nature of the test: Sucrose Equivalent Value (SEV), perceived sweetness matched to stock sucrose solutions. The conditions noted are these: for effect on sweetness of sucrose solution (dose response curve): 0 to 1000 ppm in pH 3.2 buffered 5% sucrose solution; for effect on sweetness (SEV) of sucrose solutions, comparison of forms: 500 ppm in pH 3.2 buffered solutions with 0%, 3%, 5%, 7% and 9% sucrose; for SEV (%): 500 ppm potentiator alone in pH 3.2 buffered 5% sucrose solution. The test is classed as in vivo. Here is the method: One method of measuring the perceived sweetness of a solution is to match it with a stock sucrose solution of known concentration. In the present experiments, the compound of interest is added at a predetermined concentration to a pH 3.2 buffered solution containing 5% sucrose. A number of expert panel members then taste the solution and compare it to a battery of stock sucrose solutions ranging from 3% to 15% at increments of 1%. Each panel member decides which sucrose solution is equisweet with the solution containing the compound of interest. The mean value is then reported as the SEV. Results are reported to 1 decimal place.
In accordance with this methodology, 3-HB was added to a pH 3.2 buffered solution containing 5% sucrose to produce solutions containing from 0 to 1000 ppm 3-HB in 100 ppm increments. […] From FIG. 1 it is apparent that as the dosage of 3-HB increases so does the sweetness of the resultant solution. However the effect is non-linear with each incremental addition having a diminishing effect. The maximum sweetness attainable would appear to be about 7.9% SEV (based on a 5% sucrose solution).
The same methodology as described in Example 7 was repeated with 2,4-DHB in place of 3-HB, to produce the dose response curve for 2,4-DHB (FIG. 2). […] The maximum attainable sweetness would appear to be about 6.7% SEV (based on a 5% sucrose solution).
500 ppm of a sweetener potentiator was added to a pH 3.2 buffered solution containing 5% sucrose and the SEV of the resultant solution determined.
500 ppm of the sweetener potentiator then was added to a 5% sucrose solution containing 500 ppm 3-HB to produce a series of solutions. […] The use of 500 ppm of 3-HB alone results in an SEV of 6.9% whereas in all cases but two (2,4-DHB and 3,4-DHB) the addition of a second sweetener potentiator results in a little change or even a decrease in SEV. This is highly surprising considering that all of the potentiators are shown to have SEVs greater than 5%.
The methodology was repeated to produce a series of solutions containing 500 ppm 2,4-DHB and 500 ppm of a second sweetener potentiator.
500 ppm of 3-HB, 500 ppm of 2,4-DHB and 500 ppm of 3,4-dihydroxybenzoic acid (3,4-DHB) were added to a pH 3.2 buffered solution containing 5% sucrose and the SEV determined. The results are shown in FIG. 7 together with other combinations of 3-HB, 2,4-DHB and 3,4-DHB for comparison. The solution containing the combination of 3-HB and 2,4-DHB (hatched) has a much higher SEV (8.7%) than the combination of either 3,4-DHB and 3-HB (7.6%) or the combination of 3,4-DHB and 2,4-DHB (6.8%). The three-way combination of the embodiment (hatched) is better still with an SEV of 9.8%.
pH 3.2 buffered solutions were prepared containing 0%, 3%, 5%, 7% and 9% sucrose. 500 ppm of 2,4-DHB acid, 500 ppm of the sodium salt of 2,4-DHB and 500 ppm of the potassium salt of 2,4-DHB were added individually to each of the sucrose solutions. The SEV for each of the solutions was then determined.
The SEV of each sweetener solution was then evaluated after the addition 500 ppm of 3-HB, the addition of 500 ppm of 2,4-DHB and the addition of both 500 ppm 3-HB and 2,4-DHB.
500 ppm of 3-aminobenzoic acid and 500 ppm of 4-aminobenzoic acid were individually added to separate pH 3.2 buffered solutions containing 5% sucrose and the SEVs of the resultant solutions were determined. The SEV of 3-aminobenzoic acid was about 7%, i.e., increased the sweetness intensity of 5% sucrose to about 7%. The SEV of 4-aminobenzoic acid was about 5.5-6%, i.e., increased the sweetness intensity of 5% sucrose to about 5.5-6%.

The conditions of test [2]: cited from earlier work.

In the case of `O=C(O)c1ccc(O)cc1O` [2,4-DHB, 2,4-dihydroxybenzoic acid], in test [1], the “effect on sweetness of sucrose solution (dose response curve)” value is “enhances the sweetness of the sucrose solution” and the “effect on sweetness (SEV) of sucrose solutions, comparison of forms” value (“effect on sweetness (SEV)” below) is “enhances the sweetness of the sucrose solution in every case”. Further, the “effect on sweetness of 5% sucrose solution” value in test [2] (0.2% 2,4-DHB, Canadian Patent No. 1208966) was “increase in sweetness”. In addition, the “effect on sweetness intensity of sucralose and aspartame” value in test [2] (FIGS. 1 and 2 and Tables 1 and 2 of U.S. Pat. No. 6,461,658) is given as “slightly inhibitory effect”. Further, the “effect on sweetness delivery profile of sucralose” value in test [2] (U.S. Pat. No. 6,461,658) is recorded as “significantly reducing the length of time during which sucralose sweetness is perceived”. Also, the “effect on sweetness with aspartame” value in test [2] (WO99/15032) is on record as “increase sweetness synergistically”.

Take `O=C(O)c1cc(O)c(O)c(O)c1` [3,4,5-THB, 3,4,5-tryhydroxybenzoic acid]: the “SEV (%)” value in test [1] is listed as 5.1%.

Take `O=C(O)c1ccc(O)c(O)c1` [3,4-DHB, 3,4-dihydroxybenzoic acid]: the “SEV (%)” value in test [1] came out at 6.4%.

For `O=C(O)c1cccc(O)c1` [3-HB, 3-hydroxybenzoic acid], the “effect on sweetness of sucrose solution (dose response curve)” value in test [1] is recorded as “enhances the sweetness of the sucrose solution”. In addition, the “effect on sweetness of saccharin solution” value in test [1] (500 ppm, pH 3.2 saccharin solution of SEV about 5%) is recorded as “enhances the sweetness to a greater degree alone than in combination with 2,4-DHB”.

In the case of `O=C([O-])c1ccc(O)cc1O.[K+]` [potassium salt of 2,4-DHB], the “effect on sweetness (SEV)” value in test [1] was “enhances the sweetness of the sucrose solution in every case”.

`O=C([O-])c1ccc(O)cc1O.[Na+]` [sodium salt of 2,4-DHB]: the “effect on sweetness (SEV)” value in test [1] is “enhances the sweetness of the sucrose solution in every case”.
